Values after ≈ are worked out from the molar mass of the structure shown.
Experiments:
Type in all cases: functional
[1] = test system: Trichosporon; test: Antifungal activity against Trichosporon after 24 to 48 hrs by AFST-EUCAST based broth microdilution method
[2] = test system: Pichia norvegensis; test: Antifungal activity against Candida norvegensis after 24 to 48 hrs by AFST-EUCAST based broth microdilution method
[3] = test system: Candida albicans; test: Antifungal activity against Candida albicans after 24 to 48 hrs by AFST-EUCAST based broth microdilution method
[4] = test system: Wickerhamomyces anomalus; test: Antifungal activity against Candida pelliculosa after 24 to 48 hrs by AFST-EUCAST based broth microdilution method; conditions: Hansenula anomala
[5] = test system: Saccharomyces cerevisiae; test: Antifungal activity against Saccharomyces cerevisiae after 24 to 48 hrs by AFST-EUCAST based broth microdilution method
[6] = test system: Cyberlindnera saturnus; test: Antifungal activity against Williopsis saturnus after 24 to 48 hrs by AFST-EUCAST based broth microdilution method
[7] = test system: Diutina rugosa; test: Antifungal activity against Candida rugosa after 24 to 48 hrs by AFST-EUCAST based broth microdilution method
[8] = test system: Meyerozyma guilliermondii; test: Antifungal activity against Candida guilliermondii after 24 to 48 hrs by AFST-EUCAST based broth microdilution method
[9] = test system: Nakaseomyces nivariensis; test: Antifungal activity against Candida nivariensis after 24 to 48 hrs by AFST-EUCAST based broth microdilution method
[10] = test system: Candida dubliniensis; test: Antifungal activity against Candida dubliniensis after 24 to 48 hrs by AFST-EUCAST based broth microdilution method
[11] = test system: Candida tropicalis; test: Antifungal activity against Candida tropicalis after 24 to 48 hrs by AFST-EUCAST based broth microdilution method
[12] = test system: Kluyveromyces lactis; test: Antifungal activity against Candida sphaerica after 24 to 48 hrs by AFST-EUCAST based broth microdilution method
[13] = test system: Kodamaea ohmeri; test: Antifungal activity against Kodamaea ohmeri after 24 to 48 hrs by AFST-EUCAST based broth microdilution method
[14] = test system: Pichia fermentans; test: Antifungal activity against Candida lambica after 24 to 48 hrs by AFST-EUCAST based broth microdilution method
[15] = test system: [Candida] haemuloni; test: Antifungal activity against Candida haemulonii after 24 to 48 hrs by AFST-EUCAST based broth microdilution method; conditions: Candidozyma haemuli
[16] = test system: Candida africana; test: Antifungal activity against Candida africana after 24 to 48 hrs by AFST-EUCAST based broth microdilution method
[17] = test system: Cyberlindnera jadinii; test: Antifungal activity against Candida utilis after 24 to 48 hrs by AFST-EUCAST based broth microdilution method; conditions: Williopsis jadinii
[18] = test system: [Candida] intermedia; test: Antifungal activity against Candida intermedia after 24 to 48 hrs by AFST-EUCAST based broth microdilution method; conditions: Sungouiella intermedia
[19] = test system: Pichia kudriavzevii; test: Antifungal activity against Candida krusei ATCC 6258 after 24 to 48 hrs by AFST-EUCAST based broth microdilution method
[20] = test system: Yarrowia lipolytica; test: Antifungal activity against Candida lipolytica after 24 to 48 hrs by AFST-EUCAST based broth microdilution method
[21] = test system: Kluyveromyces marxianus; test: Antifungal activity against Candida kefyr after 24 to 48 hrs by AFST-EUCAST based broth microdilution method
[22] = test system: Candida parapsilosis; test: Antifungal activity against Candida parapsilosis ATCC 22019 after 24 to 48 hrs by AFST-EUCAST based broth microdilution method; conditions: Lodderomyces parapsilosis
[23] = test system: [Candida] inconspicua; test: Antifungal activity against Candida inconspicua after 24 to 48 hrs by AFST-EUCAST based broth microdilution method; conditions: Pichia inconspicua
[24] = test system: Meyerozyma caribbica; test: Antifungal activity against Candida fermentati after 24 to 48 hrs by AFST-EUCAST based broth microdilution method
[25] = test system: Clavispora lusitaniae; test: Antifungal activity against Candida lusitaniae after 24 to 48 hrs by AFST-EUCAST based broth microdilution method
[26] = test system: Nakaseomyces glabratus; test: Antifungal activity against Candida glabrata after 24 to 48 hrs by AFST-EUCAST based broth microdilution method
[27] = test system: Debaryomyces hansenii; test: Antifungal activity against Candida famata after 24 to 48 hrs by AFST-EUCAST based broth microdilution method
[28] = test system: Cryptococcus neoformans; test: Antifungal activity against […] after 24 to 48 hrs by AFST-EUCAST based broth microdilution method
[29] = test system: Geotrichum; test: Antifungal activity against Geotrichum after 24 to 48 hrs by AFST-EUCAST based broth microdilution method
[30] = test system: Rhodotorula mucilaginosa; test: Antifungal activity against Rhodotorula mucilaginosa after 24 to 48 hrs by AFST-EUCAST based broth microdilution method
[31] = test system: Zygosaccharomyces; test: Antifungal activity against Zygosaccharomyces after 24 to 48 hrs by AFST-EUCAST based broth microdilution method

## CC[C@H](C)C[C@H](C)CCCCCCCCC(=O)N[C@H]1C[C@@H](O)[C@@H](NCCN)NC(=O)[C@@H]2[C@@H](O)CCN2C(=O)[C@H]([C@H](O)CCN)NC(=O)[C@H]([C@H](O)[C@@H](O)c2ccc(O)cc2)NC(=O)[C@@H]2C[C@@H](O)CN2C(=O)[C@H]([C@@H](C)O)NC1=O [CASPOFUNGIN]
[1]
  MIC50: 16 µg/mL (≈ 14.6 µM)
[2]
  MIC50: 0.5 µg/mL (≈ 0.457 µM)
  MIC90: 1 µg/mL (≈ 0.915 µM)
[3]
  MIC50: 0.5 µg/mL (≈ 0.457 µM)
  MIC90: 0.5 µg/mL (≈ 0.457 µM)
[4]
  MIC50: 0.5 µg/mL (≈ 0.457 µM)
  MIC90: 1 µg/mL (≈ 0.915 µM)
[5]
  MIC50: 1 µg/mL (≈ 0.915 µM)
  MIC90: 16 µg/mL (≈ 14.6 µM)
[6]
  MIC50: 1 µg/mL (≈ 0.915 µM)
  MIC90: 16 µg/mL (≈ 14.6 µM)
[7]
  MIC50: 0.5 µg/mL (≈ 0.457 µM)
  MIC90: 1 µg/mL (≈ 0.915 µM)
[8]
  MIC50: 2 µg/mL (≈ 1.83 µM)
  MIC90: 2 µg/mL (≈ 1.83 µM)
[9]
  MIC50: 0.5 µg/mL (≈ 0.457 µM)
  MIC90: 1 µg/mL (≈ 0.915 µM)
[10]
  MIC50: 0.5 µg/mL (≈ 0.457 µM)
  MIC90: 1 µg/mL (≈ 0.915 µM)
[11]
  MIC50: 0.5 µg/mL (≈ 0.457 µM)
  MIC90: 1 µg/mL (≈ 0.915 µM)
[12]
  MIC50: 0.5 µg/mL (≈ 0.457 µM)
  MIC90: 1 µg/mL (≈ 0.915 µM)
[13]
  MIC50: 1 µg/mL (≈ 0.915 µM)
  MIC90: 16 µg/mL (≈ 14.6 µM)
[14]
  MIC50: 0.5 µg/mL (≈ 0.457 µM)
  MIC90: 1 µg/mL (≈ 0.915 µM)
[15]
  MIC50: 1 µg/mL (≈ 0.915 µM)
  MIC90: 2 µg/mL (≈ 1.83 µM)
[16]
  MIC50: 0.5 µg/mL (≈ 0.457 µM)
  MIC90: 1 µg/mL (≈ 0.915 µM)
[17]
  MIC50: 0.5 µg/mL (≈ 0.457 µM)
  MIC90: 1 µg/mL (≈ 0.915 µM)
[18]
  MIC50: 0.5 µg/mL (≈ 0.457 µM)
  MIC90: 1 µg/mL (≈ 0.915 µM)
[19]
  MIC50: 1 µg/mL (≈ 0.915 µM)
  MIC90: 2 µg/mL (≈ 1.83 µM)
[20]
  MIC50: 0.5 µg/mL (≈ 0.457 µM)
  MIC90: 1 µg/mL (≈ 0.915 µM)
[21]
  MIC50: 0.25 µg/mL (≈ 0.229 µM)
  MIC90: 0.5 µg/mL (≈ 0.457 µM)
[22]
  MIC50: 2 µg/mL (≈ 1.83 µM)
  MIC90: 2 µg/mL (≈ 1.83 µM)
[23]
  MIC50: 0.5 µg/mL (≈ 0.457 µM)
  MIC90: 1 µg/mL (≈ 0.915 µM)
[24]
  MIC50: 1 µg/mL (≈ 0.915 µM)
  MIC90: 2 µg/mL (≈ 1.83 µM)
[25]
  MIC50: 1 µg/mL (≈ 0.915 µM)
  MIC90: 1 µg/mL (≈ 0.915 µM)
[26]
  MIC50: 0.5 µg/mL (≈ 0.457 µM)
  MIC90: 1 µg/mL (≈ 0.915 µM)
[27]
  MIC50: 0.5 µg/mL (≈ 0.457 µM)
  MIC90: 1 µg/mL (≈ 0.915 µM)
[28]
  MIC50: 8 µg/mL (≈ 7.32 µM)
  MIC90: 16 µg/mL (≈ 14.6 µM)
[29]
  MIC50: 1 µg/mL (≈ 0.915 µM)
  MIC90: 16 µg/mL (≈ 14.6 µM)
[30]
  MIC50: 16 µg/mL (≈ 14.6 µM)
[31]
  MIC50: 1 µg/mL (≈ 0.915 µM)
  MIC90: 16 µg/mL (≈ 14.6 µM)

Source: ChEMBL document CHEMBL1153563, “Comparative in vitro activities of caspofungin and micafungin, determined using the method of the European Committee on Antimicrobial Susceptibility Testing, against yeast isolates obtained in France in 2005-2006” (2008)
